Data from US20130287721A1, “METHOD FOR COUNTERACTING AMMONIA MALODOR” (Firmenich SA, priority 2010, published 2013).

Tested on: ammonia lateralization threshold
Assay: Panel evaluation of the lateralization threshold (LT) of ammonia alone and in combination with a PRM
Format: in vivo, panellists
Design: LT of ammonia Panellist 1 Cond II / LT of ammonia Panellist 2 Cond II / LT of ammonia Panellist 3 Cond II: unit not given here
Details: Table 4; for LT of ammonia Panellist 1 Cond II / LT of ammonia Panellist 2 Cond II / LT of ammonia Panellist 3 Cond II: ammonia stimulus combined with PRM stimulus; for LT of ammonia Panellist 1 %Δ / LT of ammonia Panellist 2 %Δ / LT of ammonia Panellist 3 %Δ: change of ammonia LT, Cond II (with PRM) vs Cond I (ammonia alone)
Procedure: An ammonia stimulus test range was prepared. To ensure a stable level of ammonia in each stimulus, the ammonia headspace was stabilized by combining appropriate concentrations of NH4Cl, NaOH and H2O instead of simply adding ammonia directly to a solvent. Different concentrations of ammonia were used to create a stimulus test range by utilizing the appropriate amount of each compound (see Table 1).
A stimulus was also prepared for each PRM which was intended to be combined with ammonia stimuli. As the PRMs differed in their potency and to ensure that each PRM stimulus had approximately the same potency, an abbreviated dose response curve was constructed for each PRM by having four panellists evaluate the intensity of five concentration levels of the PRM dissolved in propylene glycol in duplicate. Assessments were made relative to the reference of 170 ppm allyl heptanoate in propylene glycol, which intensity was set to 0. Based upon the average scores, a rough intensity match was made for each PRM utilizing one of the following criteria. If one of the tested concentration levels averaged at or near zero, this concentration level was selected. If the rating created any sort of reasonable curve, the equation of the curve was determined and solved for 0 to arrive at the PRM assessment level. If multiple concentration levels were equally distant form the match level, then the standard deviation across individuals was considered, as were the individual responses. In general, the PRM level was selected to be on average close to 0 with low variability, with two panellists saying the level was a bit too high and the other two panellists saying the level was a bit too low. The PRMs for which a stimulus was prepared are listed in Table 2 below, together with the concentration of the PRM in the stimulus.
Volunteers were screened for their ability to lateralize ammonia stimuli. For the screening, the experimenter measured the participant's lateralization threshold for ammonia using a two-alternative forced choice modified staircase procedure employing a four-in, two-down, one-up rule with a five reversal criterion, as described below, On each trial volunteers were presented with a pair of glass bottles with clean, custom-made nose pieces. One bottle contained ammonia at a particular level selected from Table 1 and the other bottle contained water only. Each bottle was applied to one nostril using the nose piece. The volunteers were asked to identify which bottle in each pair contained ammonia.
If the ammonia stimulus was correctly identified in four consecutive trials, the concentration was decreased by one level of Table 1 on the next trial. If an incorrect answer was provided, the concentration was increased by one level of Table 1. Location (left or right nostril) of the stimulus was randomized over presentations. Testing continued until one of the following occurred: • 1) Five reversals (correct decision followed by an incorrect decision or vice versa) were achieved; • 2) The volunteer gave a correct response twice in a row at the lowest level of Table 1; or • 3) The volunteer gave an incorrect response at the highest level of Table 1.
In the first circumstance, threshold values were then calculated by averaging the last four reversals. In the second circumstance, the LT was the lowest level. In the third circumstance, the LT could not be calculated. Volunteers were considered qualified to participate in the panel evaluation if their LT could be calculated (Circumstance 1).
The LT of ammonia, both alone and in combination with diverse PRM, was determined. A repeated-measures design was used, such that the LT with and without the addition of a PRM were both measured at the same time in one person by utilizing interwoven stimuli presentations. The LT for each PRM was measured by two to three panellists, the third panellists being included if the results of the first to panellists disagreed. […]

Row | Substance | LT of ammonia Panellist 1 Cond II | LT of ammonia Panellist 2 Cond II | LT of ammonia Panellist 3 Cond II | LT of ammonia Panellist 1 %Δ | LT of ammonia Panellist 2 %Δ | LT of ammonia Panellist 3 %Δ
1 | Mixture of 3-(4-ethylphenyl)-2,2-dimethylpropanal and 3(2-ethylphenyl)-2,2-dimethylpropanal [Floralozone] | 2.0 | 6.3 | 3.5 | 895% | 214% | 77%
2 | Mixture of (E)-4-(2,2,C-3,T-6-tetramethyl-R-1-cyclohexyl)-3-buten-2-one and (E)-4-(2,2,T-3,T-6-tetramethyl-R-1-cyclohexyl)-3-buten-2-one [Myrrhone ®] | 11.1 | 3.5 | 3.5 | 77% | 212% | 77%
